Numbering of substitutions follows the chain as printed. “And” between values parts separate entries of the source, which are not always exact repeats. Identical values can stand only once.
Assays:
Type in all cases: biochemical
WT IDH2 [1] = target: T1, WT IDH2 (Homo sapiens, UniProt P48735); assay: Absorbance assay, WT activity in the presence of equimolar DL-isocitrate (inhibition); settings: […] isocitrate and […] test compound, 75 μM NADP+, 2.0 nM WT IDH2
T1 construct: made in house; host or cells: Sf21 insect cells (cell pellets prepared at Evotec)
T1 sequence (P48735 40-452): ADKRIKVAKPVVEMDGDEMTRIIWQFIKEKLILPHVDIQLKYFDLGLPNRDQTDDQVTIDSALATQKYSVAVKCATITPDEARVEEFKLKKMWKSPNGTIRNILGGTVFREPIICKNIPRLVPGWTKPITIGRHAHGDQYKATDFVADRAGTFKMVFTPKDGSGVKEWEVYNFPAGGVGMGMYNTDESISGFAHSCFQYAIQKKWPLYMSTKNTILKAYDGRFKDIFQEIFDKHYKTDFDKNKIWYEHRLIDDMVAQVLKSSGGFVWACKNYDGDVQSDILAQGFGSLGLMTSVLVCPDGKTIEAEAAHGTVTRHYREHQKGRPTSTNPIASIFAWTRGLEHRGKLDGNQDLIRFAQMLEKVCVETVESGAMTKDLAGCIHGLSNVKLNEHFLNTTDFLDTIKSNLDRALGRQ
Method in brief: (§1)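 Values come from four technical replicates per reaction; compound transfer used a simultaneous pipettor and reagent dispensing triggered the start.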

WT IDH1 [2] = target: T2, WT IDH1 (Homo sapiens, UniProt O75874); assay: as above; settings: […] isocitrate and […] test compound, 75 μM NADP+, 2.0 nM WT IDH1
T2 construct: made in house; host or cells: Escherichia coli BL21(DE3) pLyS
T2 sequence (O75874 whole entry): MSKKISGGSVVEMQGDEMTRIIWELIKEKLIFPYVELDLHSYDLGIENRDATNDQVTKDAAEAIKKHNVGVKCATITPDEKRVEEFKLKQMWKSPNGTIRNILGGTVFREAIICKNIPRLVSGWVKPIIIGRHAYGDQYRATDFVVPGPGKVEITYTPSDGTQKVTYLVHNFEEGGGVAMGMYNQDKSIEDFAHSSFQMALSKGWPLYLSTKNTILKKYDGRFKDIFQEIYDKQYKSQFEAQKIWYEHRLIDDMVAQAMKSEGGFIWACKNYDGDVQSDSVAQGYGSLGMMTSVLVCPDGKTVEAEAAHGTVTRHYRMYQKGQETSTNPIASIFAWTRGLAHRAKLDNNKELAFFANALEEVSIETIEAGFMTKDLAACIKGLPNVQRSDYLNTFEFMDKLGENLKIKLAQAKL
Method in brief: as §1

R140Q IDH2 [3] = target: T3, R140Q IDH2 (Homo sapiens, UniProt P48735, R140Q); assay: Absorbance assay, variant activity in the presence of equimolar 2OG (inhibition screen); settings: 6.0 mM 2OG and 6.0 mM test compound, 0.03 μM R140Q IDH2, 50 μM NADPH
T3 construct: made in house; host or cells: Sf21 insect cells (cell pellets prepared at Evotec)
T3 sequence (P48735 40-452 R140Q): T1 sequence (P48735 40-452) with R101Q
Method in brief: as §1

R172K IDH2 [4] = target: T4, R172K IDH2 (Homo sapiens, UniProt P48735, R172K); assay: as above; settings: 1.0 mM 2OG and 1.0 mM test compound, 0.03 μM R172K IDH2, 50 μM NADPH
T4 construct: made in house; host or cells: Sf21 insect cells (cell pellets prepared at Evotec)
T4 sequence (P48735 40-452 R172K): T1 sequence (P48735 40-452) with R133K
Method in brief: as §1

R132C/S280F IDH1 = target: T5, R132C/S280F IDH1 (Homo sapiens, UniProt O75874, R132C/S280F); assay: Steady-state kinetics, NADPH turnover assay
T5 construct: made in house
T5 sequence (O75874 whole entry R132C/S280F): as the sequence (O75874 whole entry) above, with R132C, S280F counted along it
Procedure: independent runs, each composed of technical duplicates (n = 2; mean ± SD); c) R132C/S280F IDH1 assays
monitoring NADPH turnover were performed as reported (3). […]

R140Q IDH2 [5] = target: T3, R140Q IDH2; assay: Steady-state kinetics, absorbance assay; settings: 0.03 μM enzyme, 50 μM NADPH, 20 mM MgCl2, pH 8.0
Procedure: (§2) Compounds were dispensed using a CyBio SDW-CW CyBi-Well Simultaneous Pipettor and assay started using a ThermoFisher Multidrop Combi reagent dispenser.
(§3) Reactions were performed as technical duplicates, and all assays were carried out in two independent duplicates.

R172K IDH2 [6] = target: T4, R172K IDH2; assay: Steady-state kinetics, absorbance assay; settings: 0.03 μM enzyme, 50 μM NADPH, 20 mM MgCl2, pH 8.0
Procedure: as §2, §3

WT IDH2 [7] = target: T1, WT IDH2; assay: Absorbance assay, substrate activity in the absence of DL-isocitrate; settings: no DL-isocitrate; […] test compound, 75 μM NADP+, 2.0 nM WT IDH2; compared to DL-isocitrate
Method in brief: as §1

WT IDH1 [8] = target: T2, WT IDH1; assay: as above; settings: no DL-isocitrate; […] test compound, 75 μM NADP+, 2.0 nM WT IDH1; compared to DL-isocitrate
Method in brief: as §1

R132H IDH1 [9] = target: T6, R132H IDH1 (Homo sapiens, UniProt O75874, R132H); assay: Absorbance assay, variant activity in the presence of equimolar 2OG (inhibition screen); parameters: made in house; host or cells: Escherichia coli BL21(DE3) pLyS; settings: […] 2OG and […] test compound, 0.03 μM R132H IDH1, 50 μM NADPH
Method in brief: as §1
Target sequence in this assay (O75874 whole entry R132H): as the sequence (O75874 whole entry) above, with R132H counted along it

R132H IDH1 [10] = target: T6, R132H IDH1; assay: Steady-state kinetics, absorbance assay; parameters: made in house; host or cells: Escherichia coli BL21(DE3) pLyS; settings: for Kmapp / kcatapp: 0.03 μM enzyme, 50 μM NADPH, 20 mM MgCl2, pH 8.0
Procedure: as §2, §3
Target sequence in this assay (O75874 whole entry R132H): as the sequence (O75874 whole entry) above, with R132H counted along it

R132H IDH1 [11] = target: T6, R132H IDH1; assay: Electrochemical assay (FNR+R132H IDH1)@ITO/PGE electrode; parameters: made in house; host or cells: Escherichia coli BL21(DE3) pLyS (IDH1 R132H)
Procedure: Assays were carried out in an anaerobic glovebox (Glove Box Technology) under a nitrogen atmosphere. A potentiostat (Autolab PGSTAT 10) running on Nova software was used for all experiments. As previously described, the electrochemical apparatus included an Autolab electrode rotator, a two-chamber custom-made glass electrochemical cell, and custom-made rotating pyrolytic graphite edge (PGE) electrodes ([55]). Platinum wire was used as the counter electrode; it was placed in the working electrode chamber. Electrode potentials (E) were measured against a saturated calomel electrode and converted to the standard hydrogen electrode using a temperature-dependent equation (at 25 °C: ESHE = ESCE + 0.2412 V) ([55]). Nanoporous indium tin oxide (ITO) electrodes were made by electrophoretically depositing ITO nanoparticles (<50 nm, Sigma-Aldrich) onto PGE electrodes (ITO/PGE) as previously described ([55]). […] In all experiments, 0.85 nmol (homodimer basis) of IDH1 R132H was used; the amount of coloaded FNR was adjusted to achieve the desired enzyme loading ratio. Electrodes loaded with enzyme were thoroughly rinsed using buffer solution before each experiment to remove excess enzyme. […]
and controlled electrochemically under steady-state conditions (1).
Conditions: 25 °C, mixed buffer (20 […]
mM each MES, TAPS, CHES, pH 8.0), 10 mM MgCl2, 10 µM NADPH, 4 mL cell volume, (FNR+R132H IDH1)@ITO/PGE electrode, electrode area 0.06 cm2, rotated at 1000 rpm, E = –0.513 V vs SHE, enzyme loading ratios (molar): FNR/R132H IDH1; 2.5 (dimer basis).
(1 picture or pasted object on this page, not shown here)
Target sequence in this assay (O75874 2-414 R132H): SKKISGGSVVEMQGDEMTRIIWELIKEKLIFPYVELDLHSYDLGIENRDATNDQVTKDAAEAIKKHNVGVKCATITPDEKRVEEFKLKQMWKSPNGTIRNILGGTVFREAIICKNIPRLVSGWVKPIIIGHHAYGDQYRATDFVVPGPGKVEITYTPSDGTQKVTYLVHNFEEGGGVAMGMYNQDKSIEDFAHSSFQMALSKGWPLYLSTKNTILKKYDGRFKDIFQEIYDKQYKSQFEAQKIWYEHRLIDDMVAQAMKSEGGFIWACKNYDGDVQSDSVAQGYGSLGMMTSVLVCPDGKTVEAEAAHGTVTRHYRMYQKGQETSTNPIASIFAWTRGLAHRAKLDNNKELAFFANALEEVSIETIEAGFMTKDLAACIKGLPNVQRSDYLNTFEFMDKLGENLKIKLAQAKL

SMILES	activity [%] (%-substrate conversion after 20 min incubation) (WT IDH2 [1])	activity [%] (%-substrate conversion after 20 min incubation) (WT IDH1 [2])	activity [%] (%-substrate conversion after 20 min incubation) (R140Q IDH2 [3])	activity [%] (%-substrate conversion after 20 min incubation) (R172K IDH2 [4])	Kmapp (R132C/S280F IDH1)	kcatapp (R132C/S280F IDH1)	Kmapp (R140Q IDH2 [5])	kcatapp (R140Q IDH2 [5])	Kmapp (R172K IDH2 [6])	kcatapp (R172K IDH2 [6])	activity [%] (%-substrate conversion after 20 min incubation) (WT IDH2 [7])	activity [%] (%-substrate conversion after 20 min incubation) (WT IDH1 [8])	activity [%] (%-substrate conversion after 20 min incubation) (R132H IDH1 [9])	Kmapp (R132H IDH1 [10])	kcatapp (R132H IDH1 [10])	decrease of R132H IDH1 faradaic 'coupled' current during each scan (R132H IDH1 [11]; cyclic voltammetry, stationary electrode, 20 μM NADPH, 10 mM MgCl2, pH 8)	predicted change in catalytic rate (R132H IDH1 [11]; simulated from experimental Km and vmax, if 500 μM substrate consumed at the electrode-solution interface per scan)	Vmax (R132H IDH1 [10]; experimental value used for Michaelis-Menten simulation, Fig. 3H)
CC(CC(=O)O)C(=O)C(=O)O (centres unmarked) [compound 1, 3-methyl-2OG]	97±3%	94±1%	107 ± 4%	151 ± 5%	0.31 ± 0.01 mM	20.2 ± 0.5 s⁻¹	2.0 ± 0.8 mM and ~2.0 mM	5.4 ± 0.3 s⁻¹	4.2 ± 0.4 mM	4.8 ± 0.2 s⁻¹	< 10%	< 10%	391 ± 20%	3.7 ± 0.1 mM	6.9 ± 0.4 s⁻¹			
CC(CC(=O)C(=O)O)C(=O)O (centres unmarked) [compound 12, 4-methyl-2OG]	100±4%	107±4%	281 ± 4%	112 ± 13%							< 10%	< 10%	161 ± 26%	12 mM		−43%	−22%	9.6 µM/min
CCCCC(CC(=O)O)C(=O)C(=O)O (centres unmarked) [compound 4, 3-butyl-2OG]	98±2%	96±1%	753 ± 72%	126 ± 3%	0.24 ± 0.01 mM	15 ± 3 s⁻¹	3.8 ± 0.8 mM and 3.8 to 7.5 mM	9.7 ± 0.4 s⁻¹	16 ± 5 mM	7.8 ± 1.8 s⁻¹ and ~7.8 s⁻¹	< 10%	< 10%	376 ± 21%	5.7 ± 3.3 mM	9.2 ± 0.4 s⁻¹			

From article PMC9939733 (The Journal of Biological Chemistry, 2023)
